For data set [1], the system named is Mus musculus. The experiment in a line: Toxicity in BALB/c mouse infected with Mycobacterium tuberculosis H37Ra assessed as change in calcium level in serum at 6.25 to 25 mg/kg, po administered for 2 weeks started on day 4 post bacterial infection. To be noted: in vivo, 336 h. It is filed as organism-based.
The subject of data set [2] is Mycobacterium tuberculosis. In words: Antimycobacterial activity against Mycobacterium tuberculosis H37Ra infected in BALB/c mouse assessed as reduction of bacterial load in spleen at 25 mg/kg, po administered for 2 weeks started on day 4 post bacterial infection measured 3 days post last dose. It is filed as functional.
In data set [3] the test system is Mycobacterium tuberculosis. The experiment in a line: Antimycobacterial activity against Mycobacterium tuberculosis H37Ra assessed as inhibition of mycobacterial replication at 50 ug/ml after 6 days by microplate Alamar blue assay. The class given is functional. To be noted: 144 h.
Data set [4] has as its system Mycobacterium tuberculosis. In words: Antimycobacterial activity against Mycobacterium tuberculosis H37Ra infected in BALB/c mouse assessed as reduction in bacterial activity in lung at 6.25 mg/kg, po administered for 2 weeks started on day 4 post bacterial infection measured 3 days post last dose co-treated with 1 mg/kg, po isoniazid. The class given is functional.

Data set [5] deals with Mycobacterium tuberculosis. The experiment in a line: Antimycobacterial activity against Mycobacterium tuberculosis H37Ra infected in BALB/c mouse assessed as reduction of bacterial load in liver at 12.5 mg/kg, po administered for 2 weeks started on day 4 post bacterial infection measured 3 days post last dose co-treated with 1 mg/kg, po isoniazid. It is filed as functional.

Data set [6] relates to Mycobacterium tuberculosis. In words: Antimycobacterial activity against Mycobacterium tuberculosis H37Ra infected in BALB/c mouse assessed as reduction of bacterial load in spleen at 6.25 to 6.25 mg/kg, po administered for 2 weeks started on day 4 post bacterial infection measured 3 days post last dose. The class given is functional, organism-based.
The test system of data set [7] is Mus musculus. In words: Toxicity in BALB/c mouse infected with Mycobacterium tuberculosis H37Ra assessed as weight loss at 6.25 to 25 mg/kg, po administered for 2 weeks started on day 4 post bacterial infection in presence of isoniazid. It is filed as organism-based. To be noted: in vivo, 336 h.
In data set [8] the test system is Mus musculus. In words: Toxicity in BALB/c mouse infected with Mycobacterium tuberculosis H37Ra assessed as change in urea level in serum at 6.25 to 25 mg/kg, po administered for 2 weeks started on day 4 post bacterial infection. The class given is organism-based. The conditions noted are these: in vivo, 336 h.
Data set [9] concerns Mus musculus. The experiment in a line: Toxicity in BALB/c mouse infected with Mycobacterium tuberculosis H37Ra assessed as change in amylase level in serum at 6.25 to 25 mg/kg, po administered for 2 weeks started on day 4 post bacterial infection. The class given is organism-based. To be noted: in vivo, 336 h.
Data set [10] concerns Mycobacterium tuberculosis. In words: Antimycobacterial activity against Mycobacterium tuberculosis H37Ra assessed as inhibition of mycobacterial replication at 6.25 ug/ml after 6 days by microplate Alamar blue assay in absence of isoniazid. The class given is functional, organism-based.
For data set [11], the system named is Mycobacterium tuberculosis. The experiment in a line: Antimycobacterial activity against Mycobacterium tuberculosis H37Ra infected in BALB/c mouse assessed as reduction in bacterial activity in spleen at 6.25 mg/kg, po administered for 2 weeks started on day 4 post bacterial infection measured 3 days post last dose co-treated with 1 mg/kg, po isoniazid. It is filed as functional.

Each structure is given as a SMILES string. Activity calls are given as the source filed them. The rule behind the calls is not given here.

As usually defined, the inhibition in vivo is the change of the read-out against control, counted positive when it falls. The inhibition is how much of the control response was suppressed. In the case of `CCCCCC#Cc1c[nH]c(=O)nc1N`, the Activity result with Mus musculus [1], in the data set with Mus musculus [7], in the data set on Mus musculus [8] and in the data set with Mus musculus [9] was “Non-toxic” in each case. For the same compound, in data set [2], the inhibition in vivo at 25 mg/kg came out at 51%. Also, the inhibition at 50 µg/mL in data set [3] was determined as 100%. Besides, the “inhibition (INH)” value was 70% in data set [4], 96% in data set [5] and 40% in data set [11]. The outcome in [6] was inactive. Besides, the inhibition entry in [10] was “inactive”.
